Experiment [1] has as its system follicles in telogen. Briefly: Telogen Conversion Assay (TCA), visual melanogenesis grade as indicator of hair growth. It is filed as in vivo, C57Bl/6 mice. The note with it: topical; for hair growth induction in vivo (FIG. 1): compound alone; for hair growth induction in vivo (FIG. 1) / Activity (improved hair growth by inducing anagen): 19 days, C57Bl/6 mice; for timing of hair growth induction: C57BL/6 mice, selegiline 1% or Triac 0.06%, 32 days, FIG. 2. How it is done: The skin color of mice subjected to treatment is graded visually on a scale from zero to four (0=white skin; 1=light gray skin; 2=blue/black spots; 3=large blue/black region; 4=mostly blue/black skin). As a subject transitions from telogen to anagen, the skin color becomes darker.
Triac (0.06%) was administered as a positive control. Animals were scored for hair growth on the basis of melanogenesis during the treatment period.

Another experiment concerns MAOB. Nature of the experiment: MAOB production in mice administered hair growth modulators. It is filed as in vivo.
Experiment [2] has as its system follicles in telogen. Briefly: Hair growth induction (visual melanogenesis grades) in C3H mice. The conditions noted are these: topical, selegiline 1% or Triac 0.06%, 32 days. It is filed as in vivo. The procedure:
Several MAO inhibitors were tested for the ability to improve hair growth using the Telogen Conversion Assay (TCA) described in, e.g., International Patent Publication No. 2000/73265. […] The skin color of mice subjected to treatment is graded visually on a scale from zero to four (0=white skin; 1=light gray skin; 2=blue/black spots; 3=large blue/black region; 4=mostly blue/black skin). As a subject transitions from telogen to anagen, the skin color becomes darker.
The potential of selegiline to induce hair growth in different mouse strains also was studied. Selegiline (1%) was topically administered to a C3H mice and C57BL/6 mice. Triac (0.06%) was used as a positive control. […] Both strains of mice also responded to the MAO inhibitor; however, the strains responded in a manner consistent with natural inter-strain differences in transitioning to anagen. The telogen phase in C3H mice is longer than telogen in C57BL/6 mice.

“Also recorded” adds a separate entry of the source. Structures can show the parent of a compound that is named as a salt.

This note sets out measurements from US20120093752A1, “Use of Monoamine Oxidase Inhibitors to Improve Epithelial Biology” (priority 2010, published 2012).

As for `C#CCN(C)CCCOc1ccc(Cl)cc1Cl` [Clorgiline], the “hair growth induction in vivo (FIG. 1)” value with follicles in telogen [1] was “induced significant hair growth”. Further, the “Activity (improved hair growth by inducing anagen)” value (“Activity” below) in the experiment on follicles in telogen [1] (dose 1%) is “YES”.

Turning to `C[C@]12CCC(=O)C[C@@H]1CC[C@@H]1[C@@H]2CC[C@]2(C)[C@@H](O)CC[C@@H]12` [DHT, dihydrotestosterone], the MAOB levels result in the experiment with MAOB (C57Bl/6 mice, 12.5 mg/day subcutaneous continuous release pellet) is recorded as “increased greater than two fold”.

On to `NCCNC(=O)c1ccc(Cl)cn1` [Lazabemide], for which the “hair growth induction in vivo (FIG. 1)” value in the experiment on follicles in telogen [1] is “not shown to induce hair growth alone”.

Consider `C#CCN(C)Cc1ccccc1` [Pargyline HCL], for which, in the experiment with follicles in telogen [1], the “hair growth induction in vivo (FIG. 1)” value is “induced significant hair growth”. In addition, the “Activity” value with follicles in telogen [1] (dose 1%) was “YES”.

Consider `NNCCc1ccccc1` [Phenelzine], for which the “hair growth induction in vivo (FIG. 1)” value in the experiment with follicles in telogen [1] was “induced significant hair growth”. In addition, the “Activity” value in the experiment with follicles in telogen [1] (dose 0.5%) is on record as “YES”.

`C#CCN[C@@H]1CCc2ccccc21` [Rasagiline mesylate]: the “hair growth induction in vivo (FIG. 1)” value with follicles in telogen [1] is “Robust hair growth induction”. Further, the “Activity” value in the experiment on follicles in telogen [1] (dose 1%) was “YES”.

`C#CCN(C)[C@H](C)Cc1ccccc1` [Selegiline Hydrochloride]: the “timing of hair growth induction” value in the experiment on follicles in telogen [2] (FIG. 2, Hydrochloride) is recorded as “induced hair regrowth significantly earlier; also recorded: initiated hair growth significantly sooner than treatment with vehicle”; in the experiment with follicles in telogen [1] (Hydrochloride), “induced hair regrowth significantly earlier; also recorded: initiated hair growth significantly sooner than treatment with vehicle”. Further, in the experiment with follicles in telogen [1], the “hair growth induction in vivo (FIG. 1)” value is reported as “Robust hair growth induction”. Further, the “Activity” value with follicles in telogen [1] (dose 1%) was “YES”.

With `O=C(O)Cc1cc(I)c(Oc2ccc(O)c(I)c2)c(I)c1` [Triac, Triiodothyroacetic Acid], the MAOB levels result with MAOB (C3H mice, 0.06%) is “Reduced MAOB levels”. Further, the “timing of hair growth induction” value with follicles in telogen [2] (FIG. 2) and with follicles in telogen [1] was “hair growth was induced at the same time for both mouse strains; also recorded: induced hair growth simultaneously” each time.
